Measurements from PubChem BioAssay AID248 (DTP/NCI, 2004).
Values joined by “and” are separate entries in the source; they are usually repeats but may differ in a detail not shown here. Equal entries are not always repeated. Inconclusive results and toxic doses are left out.

Tested on: L1210 leukemia ip in BDF1 mice, survival T/C
Assay: NCI In Vivo Anticancer Drug Screen. Data for tumor model L1210 Leukemia (intraperitoneal) in B6D2F1 (BDF1) mice
Conditions: endpoint: mean survival time, higher = longer survival
Procedure, shortened: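 Survival endpoint. Drug-treated group vs vehicle group, expressed as T divided by C. Tumor passaged by transplantation.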

[1] = dose: 100.0 mg/kg/injection, schedule: Q01DX001 (ip), vehicle: saline
[2] = dose: 200.0 mg/kg/injection, schedule: Q01DX001 (ip), vehicle: saline
[3] = dose: 400.0 mg/kg/injection, schedule: Q01DX001 (ip), vehicle: saline
[4] = dose: 100.0 mg/kg/injection, schedule: Q04DX003 (ip), vehicle: other
[5] = dose: 200.0 mg/kg/injection, schedule: Q04DX003 (ip), vehicle: other
[6] = dose: 400.0 mg/kg/injection, schedule: Q04DX003 (ip), vehicle: other
[7] = dose: 100.0 mg/kg/injection, schedule: Q01DX001 (ip), vehicle: carboxymethylcellulose (CMC)
[8] = dose: 100.0 mg/kg/injection, schedule: Q01DX001 (ip), vehicle: other
[9] = dose: 200.0 mg/kg/injection, schedule: Q01DX001 (ip), vehicle: carboxymethylcellulose (CMC)
[10] = dose: 400.0 mg/kg/injection, schedule: Q01DX001 (ip), vehicle: carboxymethylcellulose (CMC)
[11] = dose: 200.0 mg/kg/injection, schedule: Q04DX003 (ip), vehicle: Klucel (hydroxypropylcellulose) (HPC)
[12] = dose: 400.0 mg/kg/injection, schedule: Q04DX003 (ip), vehicle: Klucel (hydroxypropylcellulose) (HPC)
[13] = dose: 100.0 mg/kg/injection, schedule: Q01DX009 (ip), vehicle: Klucel (hydroxypropylcellulose) (HPC)
[14] = dose: 100.0 mg/kg/injection, schedule: Q04DX003 (ip), vehicle: Klucel (hydroxypropylcellulose) (HPC)
[15] = dose: 200.0 mg/kg/injection, schedule: Q01DX009 (ip), vehicle: Klucel (hydroxypropylcellulose) (HPC)
[16] = dose: 400.0 mg/kg/injection, schedule: Q01DX009 (ip), vehicle: Klucel (hydroxypropylcellulose) (HPC)
[17] = dose: 100.0 mg/kg/injection, schedule: Q01DX009 (ip), vehicle: saline with Tween-80
[18] = dose: 200.0 mg/kg/injection, schedule: Q01DX009 (ip), vehicle: saline with Tween-80
[19] = dose: 400.0 mg/kg/injection, schedule: Q01DX009 (ip), vehicle: saline with Tween-80

In the case of `COC(=O)c1cn[nH]c1/N=N/N(C)C`, the T/C (dose: 25.0 mg/kg/injection, schedule: Q01DX009 (ip), vehicle: other) is reported as 120 % of control, the T/C (dose: 58.0 mg/kg/injection, schedule: Q01DX009 (ip), vehicle: other) is reported as 156 % of control and the T/C (dose: 88.0 mg/kg/injection, schedule: Q01DX009 (ip), vehicle: other) is reported as 163 % of control. The T/C [1] was 107 % of control, the T/C (dose: 133.0 mg/kg/injection, schedule: Q01DX009 (ip), vehicle: saline) was 155 % of control and the T/C [2] was 120 % of control. The T/C (dose: 200.0 mg/kg/injection, schedule: Q01DX009 (ip), vehicle: saline) was 156 % of control and the T/C [3] was 122 % of control.
`Cc1ccc(NC(=O)N(O)C2CCCCC2C#N)cc1` (stereo not given) was tested, and the T/C [2] was 96 % of control and the T/C [3] was 91 % of control.
For `O=C1CCCCC1c1ccccc1` (stereo not given), the T/C (dose: 50.0 mg/kg/injection, schedule: Q04DX002 (ip), vehicle: other) was 99 % of control, the T/C (dose: 100.0 mg/kg/injection, schedule: Q04DX002 (ip), vehicle: other) was 92 % of control and the T/C [4] was 96 % of control. For the same compound, the T/C (dose: 200.0 mg/kg/injection, schedule: Q04DX002 (ip), vehicle: other) was 108 % of control, the T/C [5] was 95 % of control and the T/C (dose: 400.0 mg/kg/injection, schedule: Q04DX002 (ip), vehicle: other) was 99 % of control. The T/C [6] was 98 % of control.
With `Cc1noc(/N=C/c2ccccc2)c1C` the T/C (dose: 100.0 mg/kg/injection, schedule: Q01DX009 (ip), vehicle: other) was 95 % of control, the T/C (dose: 100.0 mg/kg/injection, schedule: Q04DX003 (ip), vehicle: saline) was 103 % of control and the T/C (dose: 200.0 mg/kg/injection, schedule: Q01DX009 (ip), vehicle: other) was 102 % of control. The T/C (dose: 200.0 mg/kg/injection, schedule: Q04DX003 (ip), vehicle: saline) was 103 % of control, the T/C (dose: 400.0 mg/kg/injection, schedule: Q01DX009 (ip), vehicle: other) was 107 % of control and the T/C (dose: 400.0 mg/kg/injection, schedule: Q04DX003 (ip), vehicle: saline) was 96 % of control.
With `CSC1c2ccccc2-c2ccccc21` the T/C (dose: 44.0 mg/kg/injection, schedule: Q01DX001 (ip), vehicle: carboxymethylcellulose (CMC)) was 100 % of control, the T/C (dose: 44.0 mg/kg/injection, schedule: Q01DX001 (ip), vehicle: other) was 105 % of control and the T/C (dose: 66.0 mg/kg/injection, schedule: Q01DX001 (ip), vehicle: carboxymethylcellulose (CMC)) was 94 % of control and 105 % of control. The T/C (dose: 66.0 mg/kg/injection, schedule: Q01DX001 (ip), vehicle: other) was 97 % of control, the T/C [7] was 106 % of control and 111 % of control and the T/C [8] was 100 % of control. The T/C (dose: 150.0 mg/kg/injection, schedule: Q01DX001 (ip), vehicle: carboxymethylcellulose (CMC)) was 95 % of control and 100 % of control, the T/C (dose: 150.0 mg/kg/injection, schedule: Q01DX001 (ip), vehicle: other) was 97 % of control and the T/C [9] was 104 % of control. The T/C [10] was 107 % of control.
In the case of `CNc1ccc2cc(Br)ccc2c1`, the T/C (dose: 100.0 mg/kg/injection, schedule: Q01DX005 (ip), vehicle: Klucel (hydroxypropylcellulose) (HPC)) is reported as 107 % of control, the T/C (dose: 200.0 mg/kg/injection, schedule: Q01DX005 (ip), vehicle: Klucel (hydroxypropylcellulose) (HPC)) is reported as 107 % of control and the T/C [11] is reported as 95 % of control. For the same compound, the T/C (dose: 400.0 mg/kg/injection, schedule: Q01DX005 (ip), vehicle: Klucel (hydroxypropylcellulose) (HPC)) was 95 % of control and the T/C [12] was 101 % of control.
`O=C(c1ccccc1)C(Br)c1ccc([N+](=O)[O-])cc1` (stereo not given) was tested, and the T/C [13] was 99 % of control, the T/C [14] was 105 % of control and the T/C [15] was 105 % of control. For the same compound, the T/C [11] was 108 % of control, the T/C [16] was 95 % of control and the T/C [12] was 103 % of control.
`CCS(=O)(=O)c1ccc(NC(=O)OCc2ccccc2)cc1` was tested, and the T/C [7] was 94 % of control, the T/C [9] was 94 % of control and the T/C [10] was 92 % of control.
For `C/C(=N\NC(=S)Nc1cc(Cl)ccc1Cl)c1ccc(O)c(C)c1`, the T/C (dose: 12.5 mg/kg/injection, schedule: Q04DX002 (ip), vehicle: Klucel (hydroxypropylcellulose) (HPC)) was 102 % of control, the T/C (dose: 25.0 mg/kg/injection, schedule: Q04DX002 (ip), vehicle: Klucel (hydroxypropylcellulose) (HPC)) was 102 % of control and the T/C (dose: 50.0 mg/kg/injection, schedule: Q04DX002 (ip), vehicle: Klucel (hydroxypropylcellulose) (HPC)) was 105 % of control.
For `Cc1nnc(NC(=O)C(Cl)Cl)s1`, the T/C [8] was 96 % of control, the T/C [13] was 96 % of control and the T/C [4] was 95 % of control. The T/C (dose: 200.0 mg/kg/injection, schedule: Q01DX001 (ip), vehicle: other) was 98 % of control, the T/C [15] was 90 % of control and the T/C [5] was 96 % of control. The T/C (dose: 400.0 mg/kg/injection, schedule: Q01DX001 (ip), vehicle: other) was 101 % of control, the T/C [16] was 93 % of control and the T/C [6] was 87 % of control.
`O=C(O)c1cc2ccccc2cn1` was tested, and the T/C (dose: 100.0 mg/kg/injection, schedule: Q04DX002 (ip), vehicle: saline) was 102 % of control and the T/C (dose: 200.0 mg/kg/injection, schedule: Q04DX002 (ip), vehicle: saline) was 93 % of control.
With `CCc1occ(C(=O)OC)c1C1SCCS1` the T/C [1] was 92 % of control, the T/C [2] was 97 % of control and the T/C [3] was 91 % of control.
With `CN(C)c1ccc(C(=O)C(O)c2ccccc2)cc1` (stereo not given) the T/C [13] was 92 % of control, the T/C [14] was 98 % of control and the T/C [15] was 88 % of control. For the same compound, the T/C [11] was 100 % of control, the T/C [16] was 88 % of control and the T/C [12] was 96 % of control.
In the case of `C#CC(O)(c1ccccc1)c1ccc(N(C)C)cc1` (stereo not given), the T/C (dose: 100.0 mg/kg/injection, schedule: Q04DX003 (ip), vehicle: saline with Tween-80) is reported as 98 % of control, the T/C (dose: 200.0 mg/kg/injection, schedule: Q04DX003 (ip), vehicle: saline with Tween-80) is reported as 100 % of control and the T/C (dose: 400.0 mg/kg/injection, schedule: Q04DX003 (ip), vehicle: saline with Tween-80) is reported as 89 % of control.
`c1ccc2[nH]c(-c3c[nH]c4ccccc34)cc2c1` was tested, and the T/C (dose: 50.0 mg/kg/injection, schedule: Q01DX001 (ip), vehicle: saline) was 106 % of control, the T/C [1] was 102 % of control and the T/C [2] was 106 % of control.
In the case of `CC(C)(C)c1cc(O)cc(C(C)(C)C)c1`, the T/C (dose: 100.0 mg/kg/injection, schedule: Q04DX002 (ip), vehicle: saline with Tween-80) is reported as 100 % of control, the T/C (dose: 200.0 mg/kg/injection, schedule: Q04DX002 (ip), vehicle: saline with Tween-80) is reported as 97 % of control and the T/C (dose: 400.0 mg/kg/injection, schedule: Q04DX002 (ip), vehicle: saline with Tween-80) is reported as 100 % of control.
For `COc1ccc(CSSP(=S)(OC)c2ccc(OC)cc2)cc1` (stereo not given), the T/C [17] was 91 % of control, the T/C [18] was 95 % of control and the T/C [19] was 88 % of control.
For `NN1C(=O)c2ccccc2C1=O`, the T/C [17] was 100 % of control, the T/C [18] was 95 % of control and the T/C [19] was 92 % of control.
For `COc1cc(Cc2nccc3cc(OC)c(OC)cc23)c([N+](=O)[O-])cc1OC`, the T/C [1] was 102 % of control, the T/C (dose: 100.0 mg/kg/injection, schedule: Q04DX003 (ip), vehicle: saline sonified) was 106 % of control and the T/C [2] was 96 % of control. For the same compound, the T/C (dose: 200.0 mg/kg/injection, schedule: Q04DX003 (ip), vehicle: saline sonified) was 89 % of control, the T/C (dose: 300.0 mg/kg/injection, schedule: Q01DX001 (ip), vehicle: saline) was 96 % of control and the T/C (dose: 400.0 mg/kg/injection, schedule: Q04DX003 (ip), vehicle: saline sonified) was 92 % of control.
With `Cc1ccc(C(=O)CCCCCCCCC(=O)c2ccc(C)cc2)cc1` the T/C (dose: 50.0 mg/kg/injection, schedule: Q01DX009 (ip), vehicle: saline with Tween-80) was 97 % of control, the T/C [17] was 89 % of control and the T/C [18] was 89 % of control.
`O=C(O)c1cc(Br)cc(Cl)c1Cl` was tested, and the T/C (dose: 100.0 mg/kg/injection, schedule: Q04DX002 (ip), vehicle: Klucel (hydroxypropylcellulose) (HPC)) was 100 % of control and the T/C (dose: 200.0 mg/kg/injection, schedule: Q04DX002 (ip), vehicle: Klucel (hydroxypropylcellulose) (HPC)) was 103 % of control.
`COC(=O)Cc1cccc(=O)c(O)c1C(=O)OC` was tested, and the T/C (dose: 50.0 mg/kg/injection, schedule: Q01DX001 (ip), vehicle: carboxymethylcellulose (CMC)) was 102 % of control, the T/C [7] was 102 % of control and the T/C [9] was 104 % of control. The T/C [10] was 102 % of control.
